Entries after “also recorded” stand apart in the source; their conditions may differ. Square brackets hold non-standard residues; d marks the D form. Ends that are not written are not given here. pGlu = O=C1CC[C@@H](C(=O)O)N1
Experiments:
[1] = Salty taste of NaCl-reduced roasted chicken flavored rice with added peptide; format: in vivo; conditions: 50% NaCl reduction, 50 ppb peptide
Method: All Ingredients, except the rice, were placed into a container and mixed. The mixture was heated in a microwave for a total of one minute for two 30 second intervals. The rice and mixture were then mixed in a bowl. The cooking bowl was placed into a rice cooker and the cook cycle was started. After 36 minutes the rice was mixed and then allowed to cook for the remaining time for a total time of 49 minutes.
Three batches of rice were made: a control with 100% NaCl (4.7696 g), a sample with 50% NaCl (2.38 g), and the last sample had 50% NaCl (2.38 g) with 50 ppb of pGlu-Val-Leu.
Three batches of rice were made: a control with 100% NaCl, a sample with 50% NaCl, and a sample that had 50% NaCl (2.38 g) with 50 ppb of pGlu-Val-Val.
Two batches of rice were made: a control with 50% NaCl (2.38 g), and the other sample had 50% NaCl (2.38 g) with 50 ppb of pGlu-Val and 50 ppb of pGlu-Pro-Glu. Two stock solutions were made to be added to the rice: a 200 ppm stock solution of pGlu-Val in water and a 200 ppm stock solution of pGlu-Pro-Glu in water, as shown in table 44.
Three batches of rice were made: a control with 100% NaCl (4.7696 g), a sample with 40% NaCl (1.9 g), and the last sample had 40% NaCl (1.9 g) with 1 ppb of pGlu-Val-Leu and 1 ppb of pGlu-Val-Cys. […]

panelists = assay: Descriptive profile of umami enhancer UE-30 in solution, in-mouth (Example 5); format: in vivo, human; conditions: for Astringent, in-mouth perception / Bitter, in-mouth perception / Metallic, in-mouth perception / Mineral/Flinty, in-mouth perception / Numbing, in-mouth perception / Salt, in-mouth perception / Sour, in-mouth perception / Sweet, in-mouth perception / Umami FF, in-mouth perception / Umami/Brothy, in-mouth perception: mean score, 15-point scale
Method: Descriptive attributes (e.g., taste, flavor and chemical feeling factors) of four use levels of a pGlu-Val-Cys (UE-30) flavor composition peptide was determined. The four use levels were as follows: 1.0 ppb, 10.0 ppb, 100.0 ppb and 1000.0 ppb.
Data was collected for the attributes of the product in-mouth for the use levels according to the following protocol: • The samples were analyzed for flavor and aftertaste by six-nine members of a panel, trained and experienced in appearance, flavor and texture evaluation using the Spectrum™ method. Samples were evaluated across multiple panel sessions. • The strength of each attribute was rated on a 15-point scale, where 0=none and 15=very strong. • This scale incorporates the ability to use tenths of a point and therefore has the potential of 150 scale differentiations. • The scale may be expanded beyond 15 points to include extreme ratings if necessary. Attribute Perception Protocol • The panelists evaluated each sample using the following procedure • Descriptive Profiles (Flavor and Chemical Feeling Factors) of 4 levels of UE-30 (umami enhancer) • Individual data (1 replication) was collected for the flavor and chemical feeling factors of the product in-mouth Sample Preparation
The 01, 10, 100 and 1000 ppb test samples of the flavor composition peptide was prepared in water as described in the table 19.
The panelists evaluated each sample for the attributes described in table 20.

[2] = Salty taste of NaCl-reduced potato chips with added peptide; format: in vivo; conditions: 50% salt reduction, 1150 ppb peptide
Method: All Ingredients were added into a plastic container and mixed gently.
Two batches of potato chips were made: a control with 100% NaCl (0.5 g) and a sample with 50% NaCl (0.25 g) and 1150 ppb pGlu-Val-Leu.
A 1000 ppm stock of pGlu-Val-Leu in salt was made to be added to the potato chips.

With [pGlu]-Val-Val [SE-17] the Aftertaste [1] was “had a salty aftertaste”.

For [pGlu]-Val-Cys [UE-30], the “Astringent, in-mouth perception” value (panelists; 1.0 ppb in solution) was 0.0, the “Bitter, in-mouth perception” value (panelists; 1.0 ppb in solution) was 0.0 and the “Metallic, in-mouth perception” value (panelists; 1.0 ppb in solution) was 0.0. For the same substance, the “Mineral/Flinty, in-mouth perception” value (panelists; 1.0 ppb in solution) was 0.5, the “Numbing, in-mouth perception” value (panelists; 1.0 ppb in solution) was 0.0 and the “Salt, in-mouth perception” value (panelists; 1.0 ppb in solution) was 1.9. For the same substance, the “Sour, in-mouth perception” value (panelists; 1.0 ppb in solution) was 0.0, the “Sweet, in-mouth perception” value (panelists; 1.0 ppb in solution) was 0.0 and the “Umami FF, in-mouth perception” value (panelists; 1.0 ppb in solution) was 0.5. The “Umami/Brothy, in-mouth perception” value (panelists; 1.0 ppb in solution) was 0.7, the “Level of the remaining aromatics, basic tastes and chemical feeling factors with increasing concentration” value (panelists; 1.0 to 1000.0 ppb, in-mouth) was “does not increase” and the “Salt perception level as the concentration increases” value (panelists; 1.0 to 1000.0 ppb, in-mouth) was “increases slightly; also recorded: Shows increases”. For the same substance, the “Umami feeling factor as the concentration increases” value (panelists; 1.0 to 1000.0 ppb, in-mouth) was “increases slightly; also recorded: Shows increases”, the “Umami/brothy aromatic as the concentration increases” value (panelists; 1.0 to 1000.0 ppb, in-mouth) was “increases slightly; also recorded: Shows increases” and the “Astringent, in-mouth perception” value (panelists; 10.0 ppb in solution) was 0.0. For the same substance, the “Bitter, in-mouth perception” value (panelists; 10.0 ppb in solution) was 0.0, the “Metallic, in-mouth perception” value (panelists; 10.0 ppb in solution) was 0.0 and the “Mineral/Flinty, in-mouth perception” value (panelists; 10.0 ppb in solution) was 0.7. For the same substance, the “Numbing, in-mouth perception” value (panelists; 10.0 ppb in solution) was 0.0, the “Salt, in-mouth perception” value (panelists; 10.0 ppb in solution) was 2.1 and the “Sour, in-mouth perception” value (panelists; 10.0 ppb in solution) was 0.0. For the same substance, the “Sweet, in-mouth perception” value (panelists; 10.0 ppb in solution) was 0.0, the “Umami FF, in-mouth perception” value (panelists; 10.0 ppb in solution) was 1.9 and the “Umami/Brothy, in-mouth perception” value (panelists; 10.0 ppb in solution) was 1.0. The “Astringent, in-mouth perception” value (panelists; 100.0 ppb in solution) was 0.0, the “Bitter, in-mouth perception” value (panelists; 100.0 ppb in solution) was 0.0 and the “Metallic, in-mouth perception” value (panelists; 100.0 ppb in solution) was 0.0. The “Mineral/Flinty, in-mouth perception” value (panelists; 100.0 ppb in solution) was 0.7, the “Numbing, in-mouth perception” value (panelists; 100.0 ppb in solution) was 0.0 and the “Salt, in-mouth perception” value (panelists; 100.0 ppb in solution) was 2.6. For the same substance, the “Sour, in-mouth perception” value (panelists; 100.0 ppb in solution) was 0.0, the “Sweet, in-mouth perception” value (panelists; 100.0 ppb in solution) was 0.0 and the “Umami FF, in-mouth perception” value (panelists; 100.0 ppb in solution) was 2.7. For the same substance, the “Umami/Brothy, in-mouth perception” value (panelists; 100.0 ppb in solution) was 1.8, the “Astringent, in-mouth perception” value (panelists; 1000.0 ppb in solution) was 0.0 and the “Bitter, in-mouth perception” value (panelists; 1000.0 ppb in solution) was 0.0. For the same substance, the “Metallic, in-mouth perception” value (panelists; 1000.0 ppb in solution) was 0.0, the “Mineral/Flinty, in-mouth perception” value (panelists; 1000.0 ppb in solution) was 0.6 and the “Numbing, in-mouth perception” value (panelists; 1000.0 ppb in solution) was 0.0. For the same substance, the “Salt, in-mouth perception” value (panelists; 1000.0 ppb in solution) was 3.4, the “Sour, in-mouth perception” value (panelists; 1000.0 ppb in solution) was 0.0 and the “Sweet, in-mouth perception” value (panelists; 1000.0 ppb in solution) was 0.0. For the same substance, the “Umami FF, in-mouth perception” value (panelists; 1000.0 ppb in solution) was 3.5 and the “Umami/Brothy, in-mouth perception” value (panelists; 1000.0 ppb in solution) was 2.5.

In the case of [pGlu]-Val-Leu [SE-13], the “Salty taste compared to control with 100% NaCl” value [2] is reported as “saltier than the control”.
